“Also recorded” adds a separate entry of the source. Blank lines part the entries; values can stand above or below the molecule they belong to.
How the values were obtained:
[1] = system: IDH1-R132H mutant U87MG cells; test: FRET imaging of D2HGlo cellular probes in IDH1 mutant glioma cells; assay type: cell-based, human
[2] = system: IDH1 wildtype U87MG cells; test: FRET imaging of D2HGlo cellular probes in IDH1 wildtype glioma cells; assay type: cell-based, human; conditions: for acute change of Cyto-D2HGlo FRET ratio: approximately 5.5 min
[3] = system: IDH1-R132H mutant U87MG cells; test: D-2-HG in cell culture supernatant measured with D2HGlo, mutant cells; assay type: cell-based, human; conditions: 48 h
mutant IDH1 = conditions: newly diagnosed and advanced cancer; cited from earlier work
D2HGlo = D2HGlo (Achromobacter denitrificans, UniProt A0A6N0JVZ6); test: Ligand binding and selectivity of purified D2HGlo; conditions: for response of D2HGlo (FRET ratio) to metabolite: concentrations up to 100 µM
Sequence of D2HGlo (A0A6N0JVZ6 1-238, other chains not shown): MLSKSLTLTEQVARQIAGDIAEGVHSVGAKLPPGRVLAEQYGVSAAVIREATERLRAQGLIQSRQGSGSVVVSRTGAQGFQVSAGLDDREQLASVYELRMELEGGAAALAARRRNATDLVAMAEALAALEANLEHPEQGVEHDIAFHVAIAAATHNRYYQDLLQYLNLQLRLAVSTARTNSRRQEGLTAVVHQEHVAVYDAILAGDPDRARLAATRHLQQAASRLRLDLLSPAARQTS

Compound: O=CC[C@@H](O)[C@H](O)[C@H](O)CO [2-DG, 2-Deoxy-D-glucose]
acute change of Cyto-D2HGlo FRET ratio ([1]; 2-DG 10 mM, approximately 5.5 min): reduced the FRET ratio
acute change of Cyto-D2HGlo FRET ratio ([2]; 2-DG 10 mM): unaffected
concentration of D-2-HG in the supernatant ([3]; 2-DG 10 mM): reduced to levels comparable to untreated wildtype cells

Compound: N#Cc1ccnc(N2C(=O)CC[C@H]2C(=O)N(c2cncc(F)c2)[C@H](C(=O)NC2CC(F)(F)C2)c2ccccc2Cl)c1 [AG-120]
average FRET ratio of Cyto-, Nuc- and Mito-D2HGlo (D-2-HG level) ([1]; AG-120 3 µM, 48 h): reduced the average FRET ratio in all three compartments in IDH1 mutant cells to levels comparable with IDH1 wildtype cells; also recorded: decrease to levels resembling those found in IDH1 wildtype cells
acute change of Cyto-D2HGlo FRET ratio ([1]; AG-120 10 μM, 15 min following drug addition): did not result in acute changes
2-HG levels in patients (mutant IDH1): reduction of 2-HG to levels resembling those seen in healthy populations
D-2-HG levels (FRET ratio) ([2]; AG-120 3 µM, 48 h): no effect
D-2-HG concentration of supernatant ([3]; AG-120 3 µM): 2.88 ± 0.59 µM

Compound: CN(C)c1ccc(C2Nc3ccc4ccccc4c3C3=C2C(=O)CC(C)(C)C3)cc1Br (stereo not drawn) [Compound 968]
acute change of Cyto-D2HGlo FRET ratio ([1]; Compound 968 1 µM, approximately 5.5 min): did not elicit any changes
acute change of Cyto-D2HGlo FRET ratio ([2]; Compound 968 1 µM): did not elicit any changes
D-2-HG accumulation in cell culture supernatants ([3]; Compound 968 1 µM, wildtype and mutant cells (Fig. 5d)): nor did it effect D-2-HG accumulation

Compound: O=C(O)CN(CCN(CC(=O)O)CC(=O)O)CC(=O)O [EDTA]
effect on D-2-HG induced FRET response of D2HGlo (D2HGlo; 1 mM EDTA in titration buffer): prevents D-2-HG induced changes to FRET ratio

response of D2HGlo (FRET ratio) to metabolite (D2HGlo): did not respond
Compound: N[C@@H](CCC(=O)O)C(=O)O [Glutamate, L-glutamic acid]

response of D2HGlo (FRET ratio) to metabolite (D2HGlo): did not respond
Compound: C[C@H](O)C(=O)[O-].[Na+] [Lactate, sodium L-lactate]

response of D2HGlo (FRET ratio) to metabolite (D2HGlo): did not respond
Compound: CC(=O)C(=O)O [Pyruvate, Sodium pyruvate]

Source: PMC11909988 (BMC Cancer, 2025)
